The values below come from ChEMBL document CHEMBL3120068, “Identification of diverse natural products as falcipain-2 inhibitors through structure-based virtual screening” (Bioorg Med Chem Lett, 2014).

A short description of assay [1]: Inhibition of recombinant Plasmodium falciparum falcipain 2 after 30 mins by fluorescence assay.
Assay [2] has as its system Plasmodium falciparum. The assay is described as follows: Antiplasmodial activity against chloroquine-resistant blood stage Plasmodium falciparum Dd2 after 72 hrs by SYBR Green I-based fluorescence assay. The class given is functional, organism-based. Conditions: Dd2, 72 h.
The subject of assay [3] is Plasmodium falciparum. The assay is described as follows: Antiplasmodial activity against chloroquine-sensitive blood stage Plasmodium falciparum 3D7 after 72 hrs by SYBR Green I-based fluorescence assay. The settings on record: 3D7, 72 h. The class given is functional, organism-based.

pIC50: −log10 of the molar value. A value given as a limit tells only on which side of the number the result lay.

What is called pIC50 is the IC50 on a negative log10 scale, so that one unit is a factor of ten. As for `CCCCOC(=O)[C@H]1c2c(/C=C/C(=O)O[C@H](Cc3ccc(O)c(O)c3)C(=O)O)ccc(O)c2O[C@@H]1c1ccc(O)c(O)c1`, in assay [1], the pIC50 was 5.50.

Take `O=C1c2c(O)cc(O)cc2O[C@H](c2cc(O)c(O)c(O)c2)[C@@H]1O`: the values for the pIC50 in assay [2], in assay [3] and in assay [1] were less than 4.30, 4.12 and 4.35, respectively.

For `O=C1c2c(O)cc(O)cc2O[C@@]2(c3ccc(O)cc3)Oc3cc(O)c4c(c3[C@]12O)O[C@H](c1ccc(O)cc1)CC4`, the values for the pIC50 in assay [2], in assay [3] and in assay [1] were 4.18, 4.22 and 5.28, respectively.

As for `CCOC(=O)c1c(O)cc(O)c2c1OC(c1ccc(O)cc1)CC2` (configuration not stated), the values for the pIC50 in assay [2], in assay [3] and in assay [1] were 4.06, 4.22 and 5.04, respectively.

For `COc1cc(O[C@@H]2O[C@H](CO[C@@H]3OC[C@@H](O)[C@H](O)[C@H]3O)[C@@H](O)[C@H](O)[C@H]2O)c2c(=O)cc(-c3ccc(O)cc3)oc2c1`, the pIC50 in assay [2] is less than 3.30; in assay [3], less than 3.60; in assay [1] it was 4.77.

As to `COc1cc(-c2oc3cc(O)cc(O)c3c(=O)c2O[C@@H]2O[C@H](COC(C)=O)[C@@H](O)[C@H](O)[C@H]2O)cc(OC)c1O`, the pIC50 in assay [1] was 4.17.

Regarding `C[C@@H]1CC[C@H]2[C@@H](C)C(=O)O[C@@H]3O[C@@]4(C)CC[C@@H]1[C@]32OO4` [ARTEMISININ], the figures for the pIC50 in assay [2] and in assay [3] were 7.31 and 7.40, respectively.

For the compound `COC(=O)[C@@H](Cc1ccc(O)c(O)c1)OC(=O)/C=C/c1ccc(O)c2c1[C@H](C(=O)OC)[C@@H](c1ccc(O)c(O)c1)O2` [DIMETHYL LITHOSPERMATE], the pIC50 in assay [1] was 5.42.

In the case of `CC(C)C[C@H](NC(=O)[C@H]1O[C@@H]1C(=O)O)C(=O)NCCCCN=C(N)N` [E-64], the pIC50 in assay [1] was 7.77.

Take `C[C@@H]1O[C@@H](O[C@H]2[C@H](O)[C@@H](COC(=O)/C=C/c3ccc(O)c(O)c3)O[C@H]3OC[C@H](c4ccc(O)c(O)c4)O[C@@H]32)[C@H](O)[C@H](O)[C@H]1O` [ISOCRENATOSIDE]: the values for the pIC50 in assay [2], in assay [3] and in assay [1] were 4.03, less than 4.30 and 4.27, respectively.

As to `O=c1c(O[C@@H]2O[C@H](CO)[C@@H](O)[C@H](O)[C@H]2O)c(-c2ccc(O)c(O)c2)oc2cc(O)cc(O)c12` [ISOQUERCETIN], the pIC50 was 5.39 in assay [2], 5.26 in assay [3] and 4.80 in assay [1].

As for `O=C1c2c(O)cc(O)cc2O[C@H](c2ccc(O)c(O)c2)[C@H]1O` [TAXIFOLIN], the pIC50 is 4.26 in assay [2], 4.32 in assay [3] and 4.24 in assay [1].
